Data taken from paper PMC13462928 (Nature Communications, 2026).
Entries after “also recorded” stand apart in the source; their conditions may differ. Values belong to the molecule of their own block, whether it stands above or below them.

What was measured:
HL-60 cells = experiment: Cell viability (CellTiter-Glo) 6-TG assay in HL-60 cells; format: cell-based, human
Description: (§1) HEK293, MCF7, A549 were cultured in DMEM + 10% FBS, HAP1 and HL-60 were cultured in IMDM + 10% FBS. All cell lines were maintained at 37 °C and 5% CO2.
(§2) Cells were counted and adjusted to a density of 25,000 cells/mL in culture medium. […] Plates were sealed with breathable film and incubated at 37 °C with 5% CO₂ for 72 hours. Cell viability was assessed using the CellTiter-Glo Luminescent Cell Viability Assay, following the manufacturer’s protocol (Promega). Luminescence was measured using a PHERAstar FS or FSX plate reader, and data were analyzed using GraphPad Prism software (versions 9 or 10). Results were normalized to the vehicle control (DMSO).

NUDT5 [1] = biological target: T1, NUDT5 (Homo sapiens, UniProt Q9UKK9); experiment: NanoBRET NUDT5 target engagement (TE) assay in HEK293 cells; format: cell-based; set-up: expressed in transfected cells; host or cells: HEK293; details: for EC50: HEK293 cells, Supplementary Fig. 6B, read-out: NUDT5 NanoBRET target engagement EC50
HAP1 cells [2] = experiment: Titration of NUDT5 degraders and controls against fixed 6-TG (2 µg/mL) in HAP1 cells, cell viability; format: cell-based, human; details: for rescue of 6-TG-induced toxicity / concentration of maximal rescue of cell viability: HAP1, 2 µg/mL 6-TG, 72 h
Description: as §2

HAP1 cells [3] = experiment: Cell viability (CellTiter-Glo) and 6-TG assay in HAP1 WT cells; format: cell-based, human
Description: as §1, §2

HAP1 NUDT5 KO cells = experiment: Cell viability (CellTiter-Glo) 6-TG assay in HAP1 NUDT5 KO cells; format: cell-based, human; details: Fig. 1A
Description: as §1, §2

HAP1 cell lines = experiment: TH1760/6-TG cell viability assay in HAP1 cell lines; format: cell-based, human
Description: After 72 h incubation, cell viability was measured using the CellTiter-Glo assay (Promega). Signals were normalized to the control condition.

NUDT5 [4] = biological target: T1, NUDT5; experiment: Western blot NUDT5 degradation in HEK293 cells; format: cell-based; details: 20 h, Western blot, read-out: DC50 (half-maximal degradation concentration) of NUDT5
Description: (§3) Pellets were lysed on ice using RIPA buffer (25 mM Tris (pH 7.5), 150 mM NaCl, 1% Igepal, 1% SDS, 0.1% SDC, 1x protease inhibitor (Roche, cOmplete mini, 11836170001), 1x phosphatase (Thermo Scientific, Halt, 78429), 0.1% benzonase (Merck, E1014-5KU)), incubated for 15 min and then centrifuged for 20 min at 4 °C at maximum speed in a table-top centrifuge. […] Membranes were blocked with 6% milk in PBS-T for 1 h at RT, washed, and then incubated with primary antibody diluted in PBS-T supplemented with 0.1% NaN3 overnight at 4 °C. Membranes were incubated with fluorophore-conjugated secondary antibodies, Alexa Fluor 680 anti-rabbit IgG (Life Technologies, A21109), Alexa Fluor 750 anti-mouse IgG (Life Technologies, A21037) diluted 1:5000 in 2% milk PBS-T, washed and imaged with an Odyssey imager (Licor).

NUDT5 [5] = biological target: T2, NUDT5 (Homo sapiens, UniProt Q96SW2+Q9UKK9); experiment: Western blot NUDT5 degradation in HEK293 cells; format: cell-based; details: for Dmax: 20 h, read-out: apparent Dmax of NUDT5 degradation
Description: as §3

HEK293 cells = experiment: Untargeted global proteomics of HEK293 cells; format: cell-based, human; details: 100 nM, 24 h; for total proteome analysis, downregulated proteins: 7135 quantified proteins
Description: (§4) Proteomics samples were digested with trypsin using STrap columns following the manufacturer’s protocol (C02-micro, ProtiFi). […] Then, the cell pellets were collected and lysed in 5% SDS containing 1 μL/mL benzonase (E1014, Millipore) and subsequently short sonication to shear genomic DNA (1×2 s pulse, 20% amplitude, microtip, Sonics Vibra Cell). 50 μg protein from the total cell lysate or 80% of the elution fraction of the chemical pulldown were first reduced by 20 mM dithiothreitol (M02712, Fluorochem), and alkylated by 40 mM iodoacetamide (I1149, Sigma). Phosphoric acid and S-Trap protein binding buffer were added to the sample lysates. Then, the SDS lysate/S-Trap buffer were loaded into a S-Trap column (C02-micro-80, ProtiFi). 1 μg of trypsin (V5111, Promega) was used to digest each sample at 37 °C for 20 h. The samples were then eluted and dried by vacuum centrifugation. Peptide pellets were resuspended in mass spectrometry-grade water with 2% acetonitrile (85188, Thermo Scientific) and 0.1% trifluoroacetic acid (85183, Thermo Scientific). The samples were injected into Orbitrap Fusion Lumos Tribrid Mass Spectrometer (Thermo Scientific). Sample acquisition was performed as previously described.
Raw data were searched against the human database (UP000005640, downloaded 08/21) using DIA-NN (v.1.8.1)[48] by enabling FASTA digest for library-free search and Deep learning-based spectra, RTs, and IMs prediction. Trypsin/P was selected for the in silico digestion of the provided FASTA file, allowing up to 2 missed cleavages. Fixed modifications included N-terminal methionine excision and cysteine carbamidomethylation. Variable modifications were methionine oxidation and N-terminal acetylation, with a maximum of one modification per precursor. Precursor FDR was kept at 1% and MBR enabled. The protein groups matrix was further analysed using Perseus (2.0.9.0)[49] or R studio (4.3.2). Potential contaminants were filtered against the top 300 most common Homo sapiens contaminants reported in CRAPome[50]. Proteins were removed if detected less than 70% across all runs. After column-wise normalisation by median subtraction, missing values were imputed by random numbers from a normal distribution (1.8 standard deviation, downshift width 0.3). Volcano plots were generated by calculating fold change and -log10(p-value) from an unpaired two-sided Student’s t-test.

NUDT5 [6] = biological target: T2, NUDT5; experiment: Western blot NUDT5 degradation in HEK293 CRBN KO cells; format: cell-based; set-up: endogenous in cells; host or cells: HEK293 (CRBN KO); details: 100 nM, 20 h
Description: as §3

[7] = biological target: NUDT5 and the respective E3 ligase (Homo sapiens, UniProt P40337+Q9UKK9); experiment: NanoBRET ternary complex formation assay NUDT5 and the respective E3 ligase (VHL or CRBN) in HEK293 cells; format: cell-based; details: Supplementary Table 2; for Ternary complex formation below 1 µM (4 h): HEK293, 4 h; for Ternary complex formation below 1 µM (20 h): HEK293, 20 h
Description: (§5) NanoBRET ternary complex assays were performed following the manufacturer’s instructions (Promega). […] After 4 h or 20 h of incubation, a mix of substrate in assay medium was added to each well. Donor and acceptor signals were measured in a PHERAstar FSX or FS plate reader and analyzed by GraphPad Prism (v.9 or v.10). The acceptor/donor ratio was calculated, the no ligand background signal was subtracted, and multiplied by 1000 to yield mBRET units. Data were then normalized to DMSO.

NUDT5 [8] = biological target: T1, NUDT5; experiment: Western blot NUDT5 degradation in HAP1 cells; format: cell-based; set-up: endogenous in cells; host or cells: HAP1; details: HAP1 cells, Western blot; read-out: DC50 (half-maximal degradation concentration) of NUDT5
Description: as §3

NUDT5 [9] = biological target: T2, NUDT5; experiment: Western blot NUDT5 degradation in HAP1 cells; format: cell-based; set-up: endogenous in cells; host or cells: HAP1
Description: as §3

HAP1 cells [10] = experiment: Metabolomics with isotopically labeled formate/adenosine in HAP1 cells; format: cell-based, human; details: HAP1, 100 nM, 13C-D formate 1 mM, 15N adenosine 100 µM, 24 h
Description: Experiments were performed in duplicates. Approximately 1.5 × 10^6 HAP1 wt and NUDT5 KO cells were seeded in IMDM (full) prior to treatment with isotopically labeled metabolites. […] After 24 h, plates were washed with PBS and replaced with IMDM containing dialysed FBS (Gibco). Cells were treated with 1 mM of isotopically labeled sodium formate (Eurisotop, CDLM-6203-0.25) or with 1 mM of isotopically labeled sodium and 100 µM isotopically labeled adenosine (Silantes, 125303601). After 24 h, 5 × 10^6 cells for each replicate was harvested, washed with PBS, immediately snap frozen and stored at −80 °C. Cell pellets were lysed with 150 µL ice-cold 80:20 MeOH:H2O, vortexed and sonicated for 5 minutes on ice. The extract was centrifuged for 10 minutes at 10,000 × g at 4 °C and the supernatant was collected in a glass insert vial. This procedure was repeated and the two supernatants were combined. Solvent was evaporated in a vacuum concentrator. Metabolites were reconstituted in 50 µL pure MeOH. A Vanquish UHPLC system (Thermo Scientific) coupled with an Orbitrap Q Exactive (Thermo Scientific) mass spectrometer was used for the LC-MS analysis. […] Quantification of target metabolites was performed by manually integrating the area under the curve, and data were plotted using GraphPad Prism v.10.

HAP1 cells [11] = experiment: Untargeted global proteomics of HAP1 cells; format: cell-based, human; details: 100 nM, 6 h and 24 h
Description: as §4, with “Peptide pellets were resuspended in mass spectrometry-grade water with 2% acetonitrile (85188, Thermo Scientific) and 0.1% trifluoroacetic acid (85183, Thermo Scientific). The samples were injected into Orbitrap Fusion Lumos Tribrid Mass Spectrometer (Thermo Scientific). Sample acquisition was performed as previously described.” left out
Raw data were searched against the human database (UP000005640, downloaded 08/21) using DIA-NN (v.1.8.1)[48] by enabling FASTA digest for library-free search and Deep learning-based spectra, RTs, and IMs prediction. […] The protein groups matrix was further analysed using Perseus (2.0.9.0)[49] or R studio (4.3.2). […] Proteins were removed if detected less than 70% across all runs. […]

ZFP91 = biological target: T3, ZFP91 (Homo sapiens, UniProt Q96JP5); experiment: Western blot of ZFP91 levels in HEK293 and HAP1 cells; format: cell-based; details: 100 nM, 24 h
T3 construct: endogenous in cells; host or cells: HEK293 and HAP1
Description: as §3

NUDT5 [12] = biological target: T2, NUDT5; experiment: Western blot NUDT5 degradation in A549 cells; format: cell-based; set-up: endogenous in cells; host or cells: HAP1, A549, MCF7; details: A549, MCF7 and HAP1, 100 nM, 20 h
Description: as §3

NUDT5 and CRBN = biological target: T4, NUDT5 and CRBN (Homo sapiens, UniProt Q96SW2+Q9UKK9); experiment: NanoBRET ternary complex formation assay NanoLuc-NUDT5 / HaloTag-CRBN in HEK293 cells; format: cell-based; details: intact HEK293 cells
T4 construct: expressed in transfected cells; host or cells: HEK293
Description: as §5

EC50 (NUDT5 [1]): 3 nM
Compound: Cn1c(=O)c2c(nc(N3CCNCC3)n2Cc2nnc(-c3ccc(Cl)c(Cl)c3)o2)n(C)c1=O [TH5427, reference compound]
ability to desensitize cells to 6-TG treatment (phenocopy NUDT5 KO) (HL-60 cells): neither inhibitor was able to phenocopy the NUDT5 KO
rescue of 6-TG-induced toxicity (HAP1 cells [2]): failed to rescue cell viability; also recorded: no signiﬁcant eﬀect
ability to desensitize cells to 6-TG treatment (phenocopy NUDT5 KO) (HAP1 cells [3]): neither inhibitor was able to phenocopy the NUDT5 KO

DC50 (NUDT5 [4]): 7 nM
Dmax (NUDT5 [5]; Western blot): 75%
Ternary complex formation below 1 µM (4 h) [7]: Yes
Ternary complex formation below 1 µM (20 h) [7]: Yes
Compound: Cn1c(=O)c2c(nc(N3CCN(C(=O)CCOCCOCCOCCOCCNc4cccc5c4C(=O)N(C4CCC(=O)NC4=O)C5=O)CC3)n2Cc2nnc(-c3ccc(Cl)c(Cl)c3)o2)n(C)c1=O (stereo not drawn) [ASM130]
concentration of maximal rescue of cell viability (HAP1 cells [2]): 50 to 100 nM
effect on ZFP91 in global proteomics (HEK293 cells): slight effect on the zinc finger protein ZFP91
total proteome analysis, downregulated proteins (HEK293 cells): NUDT5 as the most significantly downregulated protein
NUDT5 degradation in CRBN knockout cells (NUDT5 [6]): CRBN knockout (KO) prevents PROTAC-mediated degradation of NUDT5

EC50 (NUDT5 [1]): 37 nM
DC50 (NUDT5 [4]): 0.5 nM
mechanism of degradation (rescue by neddylation, proteasome, NUDT5 inhibitors and CRBN KO) (NUDT5 [5]): UPS-dependent
NUDT5 degradation (NUDT5 [5]; 100 nM, 6 h, Western blot, Supplementary Fig. 6A): induces degradation of NUDT5
DC50 (NUDT5 [8]): 0.3 nM
Compound: Cn1c(=O)c2c(nc(N3CCN(C(=O)N4CCC(CN5CCN(c6ccc7c(c6)C(=O)N(C6CCC(=O)NC6=O)C7=O)CC5)CC4)CC3)n2Cc2nnc(-c3ccc(Cl)c(Cl)c3)o2)n(C)c1=O (stereo not drawn) [dNUDT5]
NUDT5 engagement in live cells (NUDT5 [1]; NanoBRET): engaged their cognate target NUDT5 in live cells
time course of NUDT5 degradation (NUDT5 [9]; 100 nM, up to 72 h): sustained degradation by dNUDT5 over a time course of 72 h
NUDT5 degradation (NUDT5 [9]; HAP1 cells, Western blot, Fig. 3B): induced robust degradation of endogenous NUDT5 protein
de novo derived IMP (HAP1 cells [10]): apparent increase in de novo derived IMP
global proteome analysis, downregulated proteins (HAP1 cells [11]): NUDT5 was the only significantly downregulated protein
ZFP91 levels (ZFP91): ZFP91 levels remained unchanged; also recorded: does not affect ZFP91 levels
concentration of maximal rescue of cell viability (HAP1 cells [2]): 50 to 100 nM
rescue of 6-TG-induced toxicity (HAP1 cells [2]): most efficient compound in abrogating 6-TG-induced cell death
boost of cancer cell viability in presence of 6-TG compared to TH5427 and DMSO control (HAP1 cells [2]; peer review file): more than 8 fold
NUDT5 downregulation across a panel of cell lines (NUDT5 [12]): robust and consistent NUDT5 downregulation
ternary complex formation between NUDT5 and CRBN in cells (NUDT5 and CRBN): only dNUDT5 induced proficient ternary complex formation

Continued, molecule first:

Compound: Nc1nc2nc[nH]c2c(=S)[nH]1 [Compound 6-TG, 6-Thioguanine]
increase in 6-TG IC50, NUDT5 KO versus NUDT5 WT (HAP1 NUDT5 KO cells): four-fold increase
difference in 6-TG sensitivity, NUDT5 KO versus WT (HAP1 cell lines; HAP1, fixed TH1760 50 µM, 72 h, Fig. 4D): 2.8 fold
IC50 (HAP1 cell lines; Homo sapiens, HAP1 WT cells, approximately): ~1000 nM

Compound: Cn1c(=O)c2c(nc(N3CCN(C(=O)CCOCCOCCOCCNc4cccc5c4C(=O)N(C4CCC(=O)NC4=O)C5=O)CC3)n2Cc2nnc(-c3ccc(Cl)c(Cl)c3)o2)n(C)c1=O (stereo not drawn) [ASM127]
DC50 (NUDT5 [4]): 12 nM
Dmax (NUDT5 [5]; Western blot): 71%
concentration of maximal rescue of cell viability (HAP1 cells [2]): 50 to 100 nM
effect on ZFP91 in global proteomics (HEK293 cells): slight effect on the zinc finger protein ZFP91
total proteome analysis, downregulated proteins (HEK293 cells): NUDT5 as the most significantly downregulated protein
NUDT5 degradation in CRBN knockout cells (NUDT5 [6]): CRBN knockout (KO) prevents PROTAC-mediated degradation of NUDT5
Ternary complex formation below 1 µM (4 h) [7]: Yes
Ternary complex formation below 1 µM (20 h) [7]: Yes
